Results reported in patent US20080207527A1, “Bicyclic Compounds Which Inhibit Beta-Secretase Activity and Methods of Use Thereof” (CoMentis, Inc., priority 2004, published 2008).

Columns and labels:
memapsin 2 = memapsin 2 (Homo sapiens, UniProt P56817); test: Inhibition of memapsin 2 beta-secretase activity toward fluorogenic substrate FS-2; type: biochemical; conditions: pH 4, 37° C., 20 minutes pre-incubation, read-out: M2 Ki
Description: Potency of compounds were determined by measurement of their inhibition of memapsin 2 activity toward a fluorescent substrate. […] Briefly, assays were performed at pH 4, 37° C., by pre-incubation of memapsin 2 enzyme with compound for 20 minutes. Activity measure was initiated by addition of a fluorogenic substrate FS-2 (Bachem Americas, Torrance, Calif.). Fluorescent signal increase over time was measured as a rate of hydrolysis of the peptide substrate.

Cathepsin D = Cathepsin D (Homo sapiens, UniProt P07339); test: Inhibition of cathepsin D activity (substrate peptide hydrolysis, MALDI-TOF); type: biochemical; conditions: pH 4.1, 37 degrees C., read-out: Cath D Ki
memapsin 1 = biological target: T1, memapsin 1 (Homo sapiens, UniProt Q9Y5Z0); test: Inhibition of memapsin 1 beta-secretase activity (substrate peptide hydrolysis, MALDI-TOF); type: biochemical; conditions: pH 4.1, 37 degrees C., read-out: M1 Ki
T1 sequence (Q9Y5Z0 63-518): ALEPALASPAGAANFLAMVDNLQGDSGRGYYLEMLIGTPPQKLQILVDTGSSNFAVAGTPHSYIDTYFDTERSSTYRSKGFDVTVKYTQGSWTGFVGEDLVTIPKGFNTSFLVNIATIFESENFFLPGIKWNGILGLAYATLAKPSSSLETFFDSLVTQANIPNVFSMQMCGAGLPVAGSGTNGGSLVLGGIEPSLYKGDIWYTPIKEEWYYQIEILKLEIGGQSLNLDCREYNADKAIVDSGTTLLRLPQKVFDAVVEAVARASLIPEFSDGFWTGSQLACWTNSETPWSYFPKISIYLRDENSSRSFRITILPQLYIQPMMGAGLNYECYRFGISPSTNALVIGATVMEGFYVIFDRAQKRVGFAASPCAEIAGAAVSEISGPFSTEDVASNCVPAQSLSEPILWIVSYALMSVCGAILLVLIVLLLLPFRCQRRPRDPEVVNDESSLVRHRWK

Aβ production = test: Cellular Aβ IC50 determination (Aβ40 sandwich ELISA); type: cell-based; conditions: Cricetulus griseus, Chinese hamster ovary cells over-expressing human APP695 with London and Swedish mutations, 24 h
Description: The potency of compounds against memapsin 2 activity was determined in a cellular assay of Aβ production. […] Chinese hamster ovary cells that over-express human APP695 with the London and Swedish mutations were seeded in multi-well plates at 10% confluency. Compounds were dissolved in DMSO to concentrations near 1 mM, and diluted into culture media to a final concentration near 4 μM (final 0.4% DMSO). Compounds were diluted serially and applied to cells in multi-well plates 48 h after seeding. Incubation was continued in 5% CO2 at 37 degrees C. for 24 h. Aliquots were removed and assayed for Aβ40 content using a sandwich ELISA (BioSource International). Amount of Aβ40 over the range of concentration of compounds, relative to control incubations, were fit to a 4-parameter IC50 model.

Sequence of Cathepsin D (P07339 65-412, species assumed): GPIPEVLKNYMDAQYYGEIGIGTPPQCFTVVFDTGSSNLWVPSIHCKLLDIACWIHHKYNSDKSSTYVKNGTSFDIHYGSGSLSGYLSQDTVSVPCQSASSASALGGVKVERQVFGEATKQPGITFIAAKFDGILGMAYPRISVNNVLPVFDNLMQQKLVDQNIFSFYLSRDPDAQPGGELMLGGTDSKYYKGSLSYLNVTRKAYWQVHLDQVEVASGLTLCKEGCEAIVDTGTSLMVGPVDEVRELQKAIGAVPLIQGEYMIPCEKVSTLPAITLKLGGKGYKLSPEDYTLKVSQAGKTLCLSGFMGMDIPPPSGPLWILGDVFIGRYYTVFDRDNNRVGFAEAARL
Sequence of memapsin 2 (P56817 46-501): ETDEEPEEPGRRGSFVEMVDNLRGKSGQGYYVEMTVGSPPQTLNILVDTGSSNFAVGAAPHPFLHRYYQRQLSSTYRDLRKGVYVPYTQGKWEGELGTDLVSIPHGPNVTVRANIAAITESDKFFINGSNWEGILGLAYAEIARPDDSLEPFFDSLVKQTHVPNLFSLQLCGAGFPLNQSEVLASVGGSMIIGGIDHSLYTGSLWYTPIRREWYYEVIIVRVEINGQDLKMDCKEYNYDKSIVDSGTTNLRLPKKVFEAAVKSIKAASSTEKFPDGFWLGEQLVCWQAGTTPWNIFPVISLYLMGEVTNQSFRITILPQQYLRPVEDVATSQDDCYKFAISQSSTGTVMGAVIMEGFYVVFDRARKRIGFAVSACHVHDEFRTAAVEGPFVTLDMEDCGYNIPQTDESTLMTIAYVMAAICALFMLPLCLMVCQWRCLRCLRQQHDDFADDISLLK

| Structure (SMILES) | Ki (memapsin 2) | Ki (Cathepsin D) | Ki (memapsin 1) | IC50 (Aβ production) |
| --- | --- | --- | --- | --- |
| CCCNC(=O)c1cc(C(=O)NC(CC(C)C)C(O)CC(C)C(=O)NC(C(=O)NC(C)C)C(C)C)cc(N(C)S(C)(=O)=O)c1 (stereo not shown) [N1-(5-hydroxy-8-(1-(isopropylamino)-3-methyl-1-oxobutan-2-ylamino)-2,7-dimethyl-8-oxooctan-4-yl)-5-(N-methylmethylsulfonamido)-N3-propylisophthalamide] | < 405 nM | 405 to 2000 nM |  | < 5000 nM |
| CC(C)CC(NC(=O)c1cc(C(=O)NC(C)c2ccccc2)cc(N(C)S(C)(=O)=O)c1)C(O)CC(C)C(=O)NC(C)C (stereo not shown) [N1-(5-hydroxy-8-(isopropylamino)-2,7-dimethyl-8-oxooctan-4-yl)-5-(N-methylmethylsulfonamido)-N3-(1-phenylethyl)isophthalamide] | 405 to 2000 nM |  | 405 to 2000 nM | > 20000 nM |
| COc1ccc(C[C@H](NC(=O)c2cccc(C(=O)NCc3nc(C)cs3)c2)[C@@H](O)C[C@@H](C)C(=O)N[C@H](C(=O)NCC(C)C)C(C)C)cc1 [N1-(3-hydroxy-6-(1-(isobutylamino)-3-methyl-1-oxobutan-2-ylamino)-1-(4-methoxyphenyl)-5-methyl-6-oxohexan-2-yl)-N3-((4-methylthiazol-2-yl)methyl)isophthalamide] | 2000 to 5000 nM | < 405 nM | 405 to 2000 nM |  |
| Cc1csc(CNC(=O)c2cccc(C(=O)N[C@@H](CC(C)C)[C@@H](O)C[C@@H](C)C(=O)N[C@H](C(=O)NCC(C)C)C(C)C)n2)n1 [N2-(5-hydroxy-8-(1-(isobutylamino)-3-methyl-1-oxobutan-2-ylamino)-2,7-dimethyl-8-oxooctan-4-yl)-N6-((4-methylthiazol-2-yl)methyl)pyridine-2,6-dicarboxamide] | 2000 to 5000 nM | > 5000 nM |  | > 20000 nM |
| Cc1nc(C(C)NC(=O)c2cc(C(=O)NC(CC(C)C)C(O)CC(C)C(=O)NC(C(=O)NC(C)C)C(C)C)cc(N(C)S(C)(=O)=O)c2)c(C)o1 (stereo not shown) [N1-(1-(2,5-dimethyloxazol-4-yl)ethyl)-N3-(5-hydroxy-8-(1-(isopropylamino)-3-methyl-1-oxobutan-2-ylamino)-2,7-dimethyl-8-oxooctan-4-yl)-5-(N-methylmethylsulfonamido)isophthalamide] | < 405 nM | 405 to 2000 nM |  | 10000 to 20000 nM |
| CC(C)CC(NC(=O)c1cc(C(=O)NC(CO)c2ccccc2)cc(N(C)S(C)(=O)=O)c1)C(O)CC(C)C(=O)NC(C(=O)NC(C)C)C(C)C (stereo not shown) [N1-(2-hydroxy-1-phenylethyl)-N3-(5-hydroxy-8-(1-(isopropylamino)-3-methyl-1-oxobutan-2-ylamino)-2,7-dimethyl-8-oxooctan-4-yl)-5-(N-methylmethylsulfonamido)isophthalamide] | 405 to 2000 nM |  |  | > 20000 nM |
| CC(C)CNC(=O)C(NC(=O)C(C)CC(O)C(CC(C)C)NC(=O)c1cncc(C(=O)N(C)Cc2cccnc2)c1)C(C)C (stereo not shown) [N3-(5-hydroxy-8-(1-(isobutylamino)-3-methyl-1-oxobutan-2-ylamino)-2,7-dimethyl-8-oxooctan-4-yl)-N5-methyl-N5-(pyridin-3-ylmethyl)pyridine-3,5-dicarboxamide] | 405 to 2000 nM |  |  | > 20000 nM |
| CC(C)CNC(=O)C(NC(=O)C(C)CC(O)C(CC(C)C)NC(=O)c1cc(C(=O)NC(C)c2ccccc2)cc(N(C)C(=O)OC2CCOC2)c1)C(C)C (stereo not shown) [tetrahydrofuran-3-yl 3-(5-hydroxy-8-(1-(isobutylamino)-3-methyl-1-oxobutan-2-ylamino)-2,7-dimethyl-8-oxooctan-4-ylcarbamoyl)-5-(1-phenylethylcarbamoyl)phenyl(methyl)carbamate] | 405 to 2000 nM |  |  | > 20000 nM |
| Cc1nc(CNC(=O)c2cc(C(=O)NC(CC(C)C)C(O)CC(C)C(=O)NC(C(=O)NC(C)C)C(C)C)cc(N(C)S(C)(=O)=O)c2)c(C)o1 (stereo not shown) [N1-((2,5-dimethyloxazol-4-yl)methyl)-N3-(5-hydroxy-8-(1-(isopropylamino)-3-methyl-1-oxobutan-2-ylamino)-2,7-dimethyl-8-oxooctan-4-yl)-5-(N-methylmethylsulfonamido)isophthalamide] | < 405 nM | < 405 nM |  | < 5000 nM |
| Cc1csc(CN(C)C(=O)c2cncc(C(=O)NC(CC(C)C)C(O)CC(C)C(=O)NC(C(=O)NCC(C)C)C(C)C)c2)n1 (stereo not shown) [N3-(5-hydroxy-8-(1-(isobutylamino)-3-methyl-1-oxobutan-2-ylamino)-2,7-dimethyl-8-oxooctan-4-yl)-N5-methyl-N5-((4-methylthiazol-2-yl)methyl)pyridine-3,5-dicarboxamide] | < 405 nM |  |  | 5000 to 10000 nM |
| Cc1cc(C(=O)NC(CC(C)C)C(O)CC(C)C(=O)NC(C(=O)NCC(C)C)C(C)C)cc(C(=O)N(C)Cc2cccnc2)c1 (stereo not shown) [N1-(5-hydroxy-8-(1-(isobutylamino)-3-methyl-1-oxobutan-2-ylamino)-2,7-dimethyl-8-oxooctan-4-yl)-N3,5-dimethyl-N3-(pyridin-3-ylmethyl)isophthalamide] | < 405 nM |  |  | 10000 to 20000 nM |
| COc1cccc(CN(C)C(=O)c2cccc(C(=O)NC(CC(C)C)C(O)CC(C)C(=O)NC(C(=O)NCC(C)C)C(C)C)c2)c1 (stereo not shown) [N1-(5-hydroxy-8-(1-(isobutylamino)-3-methyl-1-oxobutan-2-ylamino)-2,7-dimethyl-8-oxooctan-4-yl)-N3-(3-methoxybenzyl)-N3-methylisophthalamide] | 405 to 2000 nM |  |  | > 20000 nM |
| CC(C)CNC(=O)C(NC(=O)C(C)CC(O)C(CC(C)C)NC(=O)c1cccc(C(=O)N(C)Cc2ccccc2)c1)C(C)C (stereo not shown) [N1-benzyl-N3-(5-hydroxy-8-(1-(isobutylamino)-3-methyl-1-oxobutan-2-ylamino)-2,7-dimethyl-8-oxooctan-4-yl)-N1-methylisophthalamide] | < 405 nM |  |  | > 20000 nM |

Other lines, results leading:

| Ki (memapsin 2) | Ki (Cathepsin D) | Ki (memapsin 1) | IC50 (Aβ production) | Structure (SMILES) |
| --- | --- | --- | --- | --- |
| < 405 nM | < 405 nM | < 405 nM |  | CCCN(CCC)C(=O)c1cccc(C(=O)N[C@@H](CC(C)C)[C@@H](O)C[C@@H](C)C(=O)NC(C(=O)NCC(C)C)C(C)C)c1 (stereo in doubt) [N1-(5-hydroxy-8-(1-(isobutylamino)-3-methyl-1-oxobutan-2-ylamino)-2,7-dimethyl-8-oxooctan-4-yl)-N3,N3-dipropylisophthalamide] |
| < 405 nM | < 405 nM | 405 to 2000 nM |  | Cc1nc(CN(C)C(=O)c2cccc(C(=O)NC(CC(C)C)C(O)CC(C)C(=O)NC(C(=O)NCC(C)C)C(C)C)c2)c(C)o1 (stereo not shown) [N1-((2,5-dimethyloxazol-4-yl)methyl)-N3-(5-hydroxy-8-(1-(isobutylamino)-3-methyl-1-oxobutan-2-ylamino)-2,7-dimethyl-8-oxooctan-4-yl)-N1-methylisophthalamide] |
| < 405 nM |  |  | < 5000 nM | CC(C)CNC(=O)C(NC(=O)C(C)CC(O)C(CC(C)C)NC(=O)c1cc(C(=O)NC2CCCC2)cc(N(C)S(C)(=O)=O)c1)C(C)C (stereo not shown) [N1-cyclopentyl-N3-(5-hydroxy-8-(1-(isobutylamino)-3-methyl-1-oxobutan-2-ylamino)-2,7-dimethyl-8-oxooctan-4-yl)-5-(N-methylmethylsulfonamido)isophthalamide] |
| < 405 nM |  |  | > 20000 nM | CC(C)CNC(=O)C(NC(=O)C(C)CC(O)C(CC(C)C)NC(=O)c1cc(C(=O)N(C)Cc2ccncc2)cc(N(C)S(C)(=O)=O)c1)C(C)C (stereo not shown) [N1-(5-hydroxy-8-(1-(isobutylamino)-3-methyl-1-oxobutan-2-ylamino)-2,7-dimethyl-8-oxooctan-4-yl)-N3-methyl-5-(N-methylmethylsulfonamido)-N3-(pyridin-4-ylmethyl)isophthalamide] |
| < 405 nM |  |  | > 20000 nM | Cc1ccc(CN(C)C(=O)c2cccc(C(=O)NC(CC(C)C)C(O)CC(C)C(=O)NC(C(=O)NCC(C)C)C(C)C)c2)o1 (stereo not shown) [N1-(5-hydroxy-8-(1-(isobutylamino)-3-methyl-1-oxobutan-2-ylamino)-2,7-dimethyl-8-oxooctan-4-yl)-N3-methyl-N3-((5-methylfuran-2-yl)methyl)isophthalamide] |
| < 405 nM |  |  | > 20000 nM | Cc1nc(CN(C)C(=O)c2cccc(C(=O)NC(CC(C)C)C(O)CC(C)C(=O)NC(C(=O)NCC(C)C)C(C)C)c2)co1 (stereo not shown) [N1-(5-hydroxy-8-(1-(isobutylamino)-3-methyl-1-oxobutan-2-ylamino)-2,7-dimethyl-8-oxooctan-4-yl)-N3-methyl-N3-((2-methyloxazol-4-yl)methyl)isophthalamide] |
